According to patent US12508300B2, “Acylated GLP-1 derivative” (Sciwind Biosciences Co., Ltd., priority 2019, dated 2025):
Like-named read-outs stand apart in the source and are kept apart here. *1 amine or outer side, *2 acyl side, *3 side chain or, on linkers, in order; H or OH if unused. Where no end group is shown, it is not given here. Side-chain parts run from the residue outwards. The star is where a group is joined. C18 diacid = O=C(O)CCCCCCCCCCCCCCCCC(=O)*; γGlu = O=C(O)[C@H](CCC(=O)[*:2])N[*:1]; AEEA = NCCOCCOCC(=O)O

Assays:
trypsin = target: T1, trypsin (Bos taurus, UniProt P00760); assay: Trypsin degradation experiments; assay type: in vitro ADME
T1 construct: purchased Sigma T8003
T1 sequence (P00760 24-246): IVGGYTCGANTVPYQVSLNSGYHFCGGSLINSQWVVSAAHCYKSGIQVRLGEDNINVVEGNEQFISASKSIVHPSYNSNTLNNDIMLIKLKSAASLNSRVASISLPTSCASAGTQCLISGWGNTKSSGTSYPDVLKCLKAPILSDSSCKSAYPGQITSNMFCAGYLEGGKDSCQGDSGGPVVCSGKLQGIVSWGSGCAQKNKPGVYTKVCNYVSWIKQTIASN
Procedure: Pepsin (3200-4500 U/mg protein, from Sigma, catalog number: P6887), trypsin (approximately […] protein, from Sigma, catalog number: T8003).
B: Reaction buffer of trypsin: three 20 mM citric acid-phosphate buffers with different pH (4.0, 6.8, and 8.0) are prepared, then adding 0.005% Tween 20 and 0.001% BSA to prepare a reaction buffer of trypsin.
D: Simulated intestinal fluid containing trypsin (SIF): obtained by taking 0.0684 g of potassium dihydrogen phosphate, adding 2.5 ml of water to dissolve it, adding 0.77 ml of 0.2M sodium hydroxide solution and 5 ml of water, and then adding and dissolving 0.1001 g of trypsin; the pH is measured as 6.82, then diluting by adding water to 10 ml.
An appropriate amount of the stock solution of the test sample is taken respectively, then diluting it to 0.06 mg/ml with reaction buffers of trypsin with different pH; each group of reaction solution is divided into 1 ml/tube, a total of 7 tubes, then mixing well and incubating in a 37° C. water bath for 30 min. […]
HPLC assay is performed with samples from the enzyme degradation experiment. The peak area of the main peak of the sample without enzyme reaction at 0 point (recorded as −5 min) is used as the basal peak area, and the remaining percentage of the peak area of the main peak at different time points after enzyme addition is calculated.

ICR mice = assay type: in vivo; parameters: G-AUC: unit not given here
Procedure: 20% glucose is intragastrically administered every day according to the time schedule of 4 h, 1 d, 2 d, 3 d, 4 d, and 5 d, at a dose of 2 g/kg body weight, and fasting for 6 hours before administering the glucose; and blood is respectively collected from the tip of the tail at 0 h, 0.5 h, 1 h and 2 h after giving the 20% glucose, then measuring the blood glucose value in real time by using Roche blood glucose test paper.

RIN-m5F cells = assay: In vitro activity determination in RIN-m5F cells (cAMP assay kit); assay type: cell-based
Procedure: RIN-m5F cells with good culturing status are selected. Cells are then collected, counted, and prepared into a cell suspension of 1×10^5 cells/ml with RPMI1640 basal medium. The cell suspension is inoculated in a 96-well cell culture plate, 100 μl per well, then incubating overnight at 37° C. and 5% CO2.
The prepared cell plate is taken out, then discarding the medium, and blotting it dry on the filter paper. The sample solutions are transferred correspondingly into the cell plate, 40 μl/well; treating with the lid open for 15 min at 37° C. and 5% CO2. The cell culture plate is taken out from the incubator, then adding 10 μl of CD solution (cAMP assay kit, Promega) to each well, keeping the cell plate at 22-25° C., and shaking horizontally at 500 rpm for 20 min. 50 μl of KG solution (cAMP assay kit, Promega) is added to each well, then shaking horizontally at 22° C.-25° C., 500 rpm and avoiding light for 10 min. The chemiluminescence value is read by using the Molecular Devices SpectraMax L chemiluminescence apparatus, completing the measurement in 30 min. EC50 of a sample is calculated by using the four-parameter regression in softmax Pro software.

CD-1 mice = assay type: in vivo; details: 0.15 mg/kg s.c.; for Inhibition rate (blood glucose): Table 5 (second experiment), CD-1 mice; for glucose-lowing effects (comparison in words, Tables 4 and 5): normal mice
Procedure: Twenty-eight healthy female CD-1 mice aged 4-6 weeks are selected and divided into 4 groups, and they are injected subcutaneously with M4, M5, M7 and M0 at a dose of 0.15 mg/kg body weight.

Molecule | G-AUC (ICR mice; 0 h (before administration)) | G-AUC (ICR mice; 0.15 mg/kg s.c. single, 4 h) | Inhibition rate (blood glucose) (ICR mice; 0.15 mg/kg s.c. single, 4 h) [%] | G-AUC (ICR mice; 0.15 mg/kg s.c. single, 1 d) | Inhibition rate (blood glucose) (ICR mice; 0.15 mg/kg s.c. single, 1 d) [%] | G-AUC (ICR mice; 0.15 mg/kg s.c. single, 2 d) | Inhibition rate (blood glucose) (ICR mice; 0.15 mg/kg s.c. single, 2 d) [%] | G-AUC (ICR mice; 0.15 mg/kg s.c. single, 3 d) | Inhibition rate (blood glucose) (ICR mice; 0.15 mg/kg s.c. single, 3 d) [%] | G-AUC (ICR mice; 0.15 mg/kg s.c. single, 4 d) | Inhibition rate (blood glucose) (ICR mice; 0.15 mg/kg s.c. single, 4 d) [%] | G-AUC (ICR mice; 0.15 mg/kg s.c. single, 5 d) | Inhibition rate (blood glucose) (ICR mice; 0.15 mg/kg s.c. single, 5 d) [%] | in vitro activities (comparison in words) (RIN-m5F cells) | Inhibition rate (blood glucose) (CD-1 mice; 6 h) [%] | Inhibition rate (blood glucose) (CD-1 mice; 30 h) [%] | Inhibition rate (blood glucose) (CD-1 mice; 54 h) [%] | Inhibition rate (blood glucose) (CD-1 mice; 78 h) [%] | Inhibition rate (blood glucose) (CD-1 mice; 102 h) [%] | glucose-lowing effects (comparison in words, Tables 4 and 5) (CD-1 mice) | also measured
CC[C@H](C)[C@H](NC(=O)[C@H](Cc1ccccc1)NC(=O)[C@H](CCC(=O)O)NC(=O)[C@H](CCCCNC(=O)COCCOCCNC(=O)COCCOCCNC(=O)CC[C@H](NC(=O)CCCCCCCCCCCCCCCCC(=O)O)C(=O)O)NC(=O)[C@H](C)NC(=O)[C@H](C)NC(=O)[C@H](CCC(N)=O)NC(=O)CNC(=O)[C@H](CCC(=O)O)NC(=O)[C@H](CC(C)C)NC(=O)[C@H](Cc1ccc(O)cc1)NC(=O)[C@H](CO)NC(=O)[C@H](CO)NC(=O)[C@@H](NC(=O)[C@H](CC(=O)O)NC(=O)[C@H](CO)NC(=O)[C@@H](NC(=O)[C@H](Cc1ccccc1)NC(=O)[C@@H](NC(=O)CNC(=O)[C@H](CCC(=O)O)NC(=O)C(C)(C)NC(=O)[C@@H](N)Cc1cnc[nH]1)[C@@H](C)O)[C@@H](C)O)C(C)C)C(=O)N[C@@H](C)C(=O)N[C@@H](Cc1c[nH]c2ccccc12)C(=O)N[C@@H](CC(C)C)C(=O)N[C@H](C(=O)N[C@@H](CCCNC(=N)N)C(=O)NCC(=O)N[C@@H](CCCNC(=N)N)C(=O)NCC(=O)O)C(C)C [Semaglutide, N-ε^26-[2-(2-[2-(2-[2-(2[4-(17-carboxyheptadecanoylamino)-4(s)-carboxybutyrylamino]ethoxy)ethoxy]acetylamino)ethoxy]ethoxy)acetyl][Aib^8, Arg^34]GLP-1-(7-37) peptide] | – | – | – | – | – | – | – | – | – | – | – | – | – | – | – | – | – | – | – | – | ability against trypsin degradation (in words) (trypsin; pH4.0): show the ability against trypsin degradation; degradation rate by trypsin (in words) (trypsin; pH6.8 and 8.0, n=4, FIG. 6): basically the same
N-ε^34-[2-(2-[2-(2-[2-(2-[4-(17-carboxyheptadecanoylamino)-4(s)-carboxybutyrylamino]ethoxy)ethoxy]acetylamino)ethoxy]ethoxy)acetyl](Val^8Glu^22 Arg^26Lys^34-GLP-1(7-37)) peptide (HVEGTFTSDVSSYLEEQAAREFIAWLVK([AEEA-AEEA-γGlu-C18 diacid])GRG) [M5] | 16.3 ± 2.5 | 11.5 ± 1.0 | 29.59 | 9.9 ± 0.7 | 39.47 | 11.4 ± 1.3 | 30.11 | 11.9 ± 2.0 | 27.07 | 13.8 ± 1.9 | 15.38 | 14.4 ± 2.2 | 11.66 | comparable | 29.59 | 39.47 | 30.11 | 27.07 | 15.38 | comparable | –
N-ε^37-[2-(2-[2-(2-[2-(2-[4-(17-carboxyheptadecanoylamino)-4(s)-carboxybutyrylamino]ethoxy)ethoxy]acetylamino)ethoxy]ethoxy)acetyl](Val^8Glu^22Arg^26,34Lys^37-GLP-1 (7-37)) peptide (HVEGTFTSDVSSYLEEQAAREFIAWLVRGRK([AEEA-AEEA-γGlu-C18 diacid])) [M7] | 16.3 ± 2.7 | 11.8 ± 1.4 | 27.22 | 10.0 ± 1.6 | 38.82 | 12.6 ± 1.5 | 22.56 | 12.6 ± 0.7 | 22.48 | 14.4 ± 1.1 | 11.60 | 15.2 ± 1.0 | 6.76 | comparable | 27.22 | 38.82 | 22.56 | 22.48 | 11.60 | comparable | –
